Results on 29 compounds are retold here after patent publication US8268827B2, “Pyridazinone derivatives as PARP inhibitors” (Istituto di Ricerche di Biologia Molecolare P. Angeletti …, priority 2007, dated 2012).

Counter-ions that a name gives are not always drawn.

By CC50 is commonly meant the concentration that lowers cell viability or growth by half.

For the test, the system named is BRCA-1 silenced HeLa cells (HeLa shBRCA1-GFP). The test is described as follows: Proliferation assay in BRCA-1 silenced HeLa cells. Format: cell-based. To be noted: Homo sapiens; BRCA1 silenced HeLa cells, 168 hours; read-out: CC50 in the BRCA1 silenced HeLa cells. The gist of the method: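 HeLa cells with lentiviral shRNA BRCA1 knockdown (>80%), compared with control-vector HeLa, seeded at 300 cells/well. Compound exposure lasted 168 h at 37° C. Viability was read as resazurin-to-resorufin fluorescence (ex 550/em 590 nm).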
As to `CCC1CN(C(=O)c2cc(Cc3n[nH]c(=O)c(C)c3C)ccc2F)CC(=O)N1C1CCC1` (centres unmarked) [Example 164, 6-{3-[(4-Cyclobutyl-3-ethyl-5-oxopiperazin-1-yl)carbonyl]-4-fluorobenzyl}-4,5-dimethylpyridazin-3(2H)-one], the CC50 lay within 50 to 500 nM. As for `Cc1c(Cc2ccc(F)c(C(=O)N3CC(=O)N([C@H]4CCOC4)[C@H](C)C3)c2)n[nH]c(=O)c1C` (single isomer, unassigned) [75 (II4A)], the figure is 50 to 500 nM; as for `Cc1c(Cc2ccc(F)c(C(=O)N3CCN(CC(C)(C)O)C(=O)C3)c2)n[nH]c(=O)c1C` [Example 173, 6-(4-Fluoro-3-{[4-(2-hydroxy-2-methylpropyl)-3-oxopiperazin-1-yl]carbonyl}benzyl)-4,5-dimethylpyridazin-3(2H)-one], under 5000 nM. `Cc1c(Cc2ccc(F)c(C(=O)N3CC(=O)N(c4ccc(C#N)c(F)c4)[C@H](C)C3)c2)n[nH]c(=O)c1C` [Example 191, 4-((2R)-4-{5-[(4,5-Dimethyl-6-oxo-1,6-dihydropyridazin-3-yl)methyl]-2-fluorobenzoyl}-2-methyl-6-oxopiperazin-1-yl)-2-fluorobenzonitrile]: the CC50 was under 50 nM. As for `Cc1c(Cc2ccc(F)c(C(=O)N3CCN(C4CCC(c5ccccc5)C4)C(=O)C3)c2)n[nH]c(=O)c1C` (centres unmarked) [Example 119, 6-(4-fluoro-3-{[3-oxo-4-(3-phenylcyclopentyl)piperazin-1-yl]carbonyl}benzyl)-4,5-dimethyl-3-oxo-2,3-dihydropyridazin-1-ium trifluoroacetate], the figure is under 50 nM. Regarding `CCc1cc(Cc2ccc(F)c(C(=O)N3CCN([C@@H]4CCc5ccccc5C4)C(=O)C3)c2)n[nH]c1=O` [Example 160, 4-ethyl-6-[4-fluoro-3-({3-oxo-4-[(2R)-1,2,3,4-tetrahydronaphthalen-2-yl]piperazin-1-yl}carbonyl)benzyl]pyridazin-3(2H)-one], the CC50 was 50 to 500 nM.

In the case of `CCc1cc(Cc2ccc(F)c(C(=O)N3CCN(C4CCCC4)C(=O)C3)c2)n[nH]c1=O` [Example 30, 3-{3-[(4-Cyclopentyl-3-oxopiperazin-1-yl)carbonyl]-4-fluorobenzyl}-5-ethyl-6-oxo-1,6-dihydropyridazin-1-ium trifluoroacetate], the CC50 is under 50 nM. Take `Cc1c(Cc2ccc(F)c(C(=O)N3CC(=O)N(C4CCCC4)C(C)C3)c2)n[nH]c(=O)c1C` (centres unmarked) [Example 102, 6-{3-[(4-cyclopentyl-3-methyl-5-oxopiperazin-1-yl)carbonyl]-4-fluorobenzyl}-4,5-dimethyl-3-oxo-2,3-dihydropyridazin-1-ium trifluoroacetate]: the cytotoxic concentration (CC50) is under 50 nM. Consider `Cc1c(Cc2ccc(F)c(C(=O)N3CC(=O)N(c4ccc(C#N)cc4)[C@@H](C)C3)c2)n[nH]c(=O)c1C` [Example 166, 4-((2S)-4-{5-[(4,5-Dimethyl-6-oxo-1,6-dihydropyridazin-3-yl)methyl]-2-fluorobenzoyl}-2-methyl-6-oxopiperazin-1-yl)benzonitrile], for which the CC50 was under 50 nM.

Take `Cc1c(Cc2ccc(F)c(C(=O)N3CC(=O)N(C4CC(F)(F)C4)C(C)C3)c2)n[nH]c(=O)c1C` (centres unmarked) [Example 188, 6-(3-{[4-(3,3-Difluorocyclobutyl)-3-methyl-5-oxopiperazin-1-yl]carbonyl}-4-fluorobenzyl)-4,5-dimethylpyridazin-3(2H)-one]: the CC50 is under 50 nM. For the compound `COCC(C)N1CCN(C(=O)c2cc(Cc3n[nH]c(=O)c(C)c3C)ccc2F)CC1=O` (centres unmarked) [Example 162, 6-(4-Fluoro-3-{[4-(2-methoxy-1-methylethyl)-3-oxopiperazin-1-yl]carbonyl}benzyl)-4,5-dimethylpyridazin-3(2H)-one], the CC50 is under 50 nM. In the case of `Cc1c(Cc2ccc(F)c(C(=O)N3CC(=O)N([C@@H]4CCOC4)[C@@H](C)C3)c2)n[nH]c(=O)c1C` [Example 157, 6-[4-fluoro-3-({(3S)-3-methyl-5-oxo-4-[(3R)-tetrahydrofuran-3-yl]piperazin-1-yl}carbonyl)benzyl]-4,5-dimethylpyridazin-3(2H)-one], the CC50 lay within 50 to 500 nM. The result for `Cc1c(Cc2ccc(F)c(C(=O)N3CC(=O)N(C(c4ccccc4)C(F)F)C(C)C3)c2)n[nH]c(=O)c1C` (centres unmarked) [Example 131, 6-(3-{[4-(2,2-Difluoro-1-phenylethyl)-3-methyl-5-oxopiperazin-1-yl]carbonyl}-4-fluorobenzyl)-4,5-dimethylpyridazin-3(2H)-one trifluoroacetate] reads under 50 nM. The result for `CCc1cc(Cc2ccc(F)c(C(=O)N3CCN([C@H]4CCc5ccccc5C4)C(=O)C3)c2)n[nH]c1=O` [Example 159, 4-ethyl-6-[4-fluoro-3-({3-oxo-4-[(2S)-1,2,3,4-tetrahydronaphthalen-2-yl]piperazin-1-yl}carbonyl)benzyl]pyridazin-3(2H)-one] reads under 50 nM. In the case of `Cc1c(Cc2ccc(F)c(C(=O)N3CCN(C4CCC(c5ccccc5)CC4)C(=O)C3)c2)n[nH]c(=O)c1C` (centres unmarked) [Example 68, 6-(4-Fluoro-3-{[3-oxo-4-(4-phenylcyclohexyl)piperazin-1-yl]carbonyl}benzyl)-4,5-dimethyl-3-oxo-2,3-dihydropyridazin-1-ium trifluoroacetate], the CC50 was under 50 nM. As for `Cc1c(Cc2ccc(F)c(C(=O)N3CC(=O)N(C4CCC(F)(F)C4)C(C)C3)c2)n[nH]c(=O)c1C` (centres unmarked) [Example 127, 6-(3-{[4-(3,3-Difluorocyclopentyl)-3-methyl-5-oxopiperazin-1-yl]carbonyl}-4-fluorobenzyl)-4,5-dimethylpyridazin-3(2H)-one trifluoroacetate], the figure is under 50 nM; as for `Cc1c(Cc2ccc(F)c(C(=O)N3CCN([C@H](C)c4ccccc4)C(=O)C3)c2)n[nH]c(=O)c1C` [Example 121, 6-[4-fluoro-3-({3-oxo-4-[(1R)-1-phenylethyl]piperazin-1-yl}carbonyl)benzyl]-4,5-dimethyl-3-oxo-2,3-dihydropyridazin-1-ium trifluoroacetate], 50 to 500 nM; as for `Cc1c(Cc2ccc(F)c(C(=O)N3CCN(c4cc(F)cc(F)c4)C(=O)C3)c2)n[nH]c(=O)c1C` [Example 12, 6-(3-{[4-(3,5-Difluorophenyl)-3-oxopiperazin-1-yl]carbonyl}-4-fluorobenzyl)-4,5-dimethyl-3-oxo-2,3-dihydropyridazin-1-ium trifluoroacetate], under 50 nM. On to `Cc1c(Cc2ccc(F)c(C(=O)N3CCN(C4CCCC(c5ccccc5)C4)C(=O)C3)c2)n[nH]c(=O)c1C` (centres unmarked) [Example 66, 6-(4-Fluoro-3-{[3-oxo-4-(3-phenylcyclohexyl)piperazin-1-yl]carbonyl}benzyl)-4,5-dimethyl-3-oxo-2,3-dihydropyridazin-1-ium trifluoroacetate], for which the CC50 fell in the range of 50 to 500 nM. The result for `Cc1c(Cc2ccc(F)c(C(=O)N3CC(=O)N(c4cccc(Cl)c4)[C@H](C)C3)c2)n[nH]c(=O)c1C` [Example 178, 6-(3-{[(3R)-4-(3-Chlorophenyl)-3-methyl-5-oxopiperazin-1-yl]carbonyl}-4-fluorobenzyl)-4,5-dimethylpyridazin-3(2H)-one] reads under 50 nM; that for `Cc1c(Cc2ccc(F)c(C(=O)N3CC(=O)N(c4cccc(Cl)c4)C(C)C3)c2)n[nH]c(=O)c1C` (centres unmarked) [Example 165, 6-(3-{[4-(3-Chlorophenyl)-3-methyl-5-oxopiperazin-1-yl]carbonyl}-4-fluorobenzyl)-4,5-dimethylpyridazin-3(2H)-one], under 50 nM. In the case of `O=C(c1cc(Cc2cc(C(F)(F)F)c(=O)[nH]n2)ccc1F)N1CCN([C@H]2CCCOC2)C(=O)C1` [Example 153, 6-[4-fluoro-3-({3-oxo-4-[(3S)-tetrahydro-2H-pyran-3-yl]piperazin-1-yl}carbonyl)benzyl]-4-(trifluoromethyl)pyridazin-3(2H)-one], the 50% cytotoxic concentration (CC50) lay within 50 to 500 nM. In the case of `CC[C@H](C)N1CCN(C(=O)c2cc(Cc3n[nH]c(=O)c(C)c3C)ccc2F)CC1=O` [Example 161, 6-[4-Fluoro-3-({4-[(1S)-1-methylpropyl]-3-oxopiperazin-1-yl}carbonyl)benzyl]-4,5-dimethylpyridazin-3(2H)-one], the CC50 is under 50 nM. For the compound `Cc1c(Cc2cc(C(=O)N3CCN(C4CCCC4)C(=O)C3)c(F)cc2Br)n[nH]c(=O)c1C` [Example 83, 6-{2-Bromo-5-[(4-cyclopentyl-3-oxopiperazin-1-yl)carbonyl]-4-fluorobenzyl}-4,5-dimethylpyridazin-3(2H)-one], the CC50 is under 50 nM. For `Cc1c(Cc2ccc(F)c(C(=O)N3CCN(c4ccc(F)cc4Cl)C(=O)C3)c2)n[nH]c(=O)c1C` [Example 16, 6-(3-{[4-(2-Chloro-4-fluorophenyl)-3-oxopiperazin-1-yl]carbonyl}-4-fluorobenzyl)-4,5-dimethyl-3-oxo-2,3-dihydropyridazin-1-ium trifluoroacetate], the CC50 lay within 50 to 500 nM.

Regarding `Cc1c(Cc2ccc(F)c(C(=O)N3CCN(C(C)C4CC4)C(=O)C3)c2)n[nH]c(=O)c1C` (centres unmarked) [Example 204, 6-(3-{[4-(1-Cyclopropylethyl)-3-oxopiperazin-1-yl]carbonyl}-4-fluorobenzyl)-4,5-dimethylpyridazin-3(2H)-one], the CC50 lay in the range of 50 to 500 nM.

As to `Cc1c(Cc2ccc(F)c(C(=O)N3CCN([C@H]4CCCOC4)C(=O)C3)c2)n[nH]c(=O)c1C` [Example 103, 6-[4-fluoro-3-({3-oxo-4-[(3S)-tetrahydro-2H-pyran-3-yl]piperazin-1-yl}carbonyl)benzyl]-4,5-dimethylpyridazin-3(2H)-one], the CC50 fell in the range of 50 to 500 nM.

Take `CCN1C(=O)CN(C(=O)c2cc(Cc3n[nH]c(=O)c(C(F)(F)F)c3C)ccc2F)C[C@@H]1C` [Example 155, 6-(3-{[(3S)-4-ethyl-3-methyl-5-oxopiperazin-1-yl]carbonyl}-4-fluorobenzyl)-5-methyl-4-(trifluoromethyl)pyridazin-3(2H)-one]: the CC50 is under 50 nM.

Take `Cc1c(Cc2ccc(F)c(C(=O)N3CC(=O)N(c4ccc(F)c(C#N)c4)[C@H](C)C3)c2)n[nH]c(=O)c1C` [Example 197, 5-((2R)-4-{5-[(4,5-Dimethyl-6-oxo-1,6-dihydropyridazin-3-yl)methyl]-2-fluorobenzoyl}-2-methyl-6-oxopiperazin-1-yl)-2-fluorobenzonitrile]: the CC50 is under 50 nM.
